According to patent US10745382B2 (BRISTOL-MYERS SQUIBB COMPANY, priority 2015, dated 2020):

What follows are molecules tested against T1, PD-1/PD-L1 (Homo sapiens, UniProt Q9NZQ7) (assay: PD-1/PD-L1 Homogenous Time-Resolved Fluorescence (HTRF) binding assay). Settings: PD-L1-His 10 nM, PD-1-Ig 20 nM; value given as range class; read-out: Range or IC50.
T1 construct: made in house; host or cells: HEK293T
T1 sequence (Q9NZQ7 with tags, fused parts or gaps): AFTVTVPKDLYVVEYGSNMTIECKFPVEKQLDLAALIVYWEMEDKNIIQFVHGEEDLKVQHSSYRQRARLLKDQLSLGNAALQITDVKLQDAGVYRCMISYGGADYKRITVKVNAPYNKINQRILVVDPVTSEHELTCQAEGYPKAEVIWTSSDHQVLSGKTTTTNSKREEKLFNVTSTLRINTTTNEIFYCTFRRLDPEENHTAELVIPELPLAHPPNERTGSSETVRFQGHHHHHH
How it was run: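 Detection by europium cryptate anti-Ig plus APC anti-His (1 nM and 20 nM final) with HTRF signal. Buffer was dPBS, 0.1% BSA, 0.05% Tween-20.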
With `Cc1c(COc2cc(OCc3cncc(C#N)c3)c(CNC(CO)(CO)CO)cc2Cl)cccc1-c1cccc(C(=O)N2CCOCC2)c1C` [Example 4058, 5-((4-chloro-2-(((1,3-dihydroxy-2-(hydroxymethyl)propan-2-yl)amino)methyl)-5-((2,2′-dimethyl-3′-(morpholine-4-carbonyl)-[1,1′-biphenyl]-3-yl)methoxy)phenoxy)methyl)nicotinonitrile] the IC50 was 10 to 100 nM.
Molecule `Cc1c(COc2cc(OCc3cncc(C#N)c3)c(CNC(C)(CO)CO)cc2Cl)cccc1-c1cccc(OCCCNC(=O)C(O)CO)c1Cl` (centres unmarked) [Example 2088, N-(3-((2-chloro-3′-((2-chloro-5-((5-cyanopyridin-3-yl)methoxy)-4-(((1,3-dihydroxy-2-methylpropan-2-yl)amino)methyl)phenoxy)methyl)-2′-methyl-[1,1′-biphenyl]-3-yl)oxy)propyl)-2,3-dihydroxypropanamide] has an IC50 of 0.21 to 10 nM.
Work on `Cc1c(COc2cc(OCc3cncc(C#N)c3)c(CN3CCCC[C@H]3C(=O)O)cc2Cl)cccc1-c1cccc(OCCCNCC(O)CO)c1C` (stereo partly drawn) [Example 2235, (2S)-1-(5-chloro-2-((5-cyanopyridin-3-yl)methoxy)-4-((3′-(3-(2,3-dihydroxypropylamino)propoxy)-2,2′-dimethylbiphenyl-3-yl)methoxy)benzyl)piperidine-2-carboxylic Acid] yielded an IC50 of 0.21 to 10 nM.
Work on `COc1ccccc1N1CCN(CCCOc2cccc(-c3cccc(COc4cc(OCc5cncc(C#N)c5)c(CN5CCCC[C@H]5C(=O)O)cc4Cl)c3C)c2C)CC1` [Example 2219, (2S)-1-(5-chloro-2-((5-cyanopyridin-3-yl)methoxy)-4-((3′-(3-(4-(2-methoxyphenyl)piperazin-1-yl)propoxy)-2,2′-dimethylbiphenyl-3-yl)methoxy)benzyl)piperidine-2-carboxylic Acid] yielded an IC50 of 0.21 to 10 nM.
Molecule `Cc1c(COc2cc(OCc3cncc(C#N)c3)c(CN3CCCC[C@H]3C(=O)O)cc2Cl)cccc1-c1cccc(OCCCN2CCC(O)(C(=O)O)CC2)c1C` [Example 1061, (S)-1-(4-((3′-(3-(4-carboxy-4-hydroxypiperidin-1-yl)propoxy)-2,2′-dimethyl-[1,1′-biphenyl]-3-yl)methoxy)-5-chloro-2-((5-cyanopyridin-3-yl)methoxy)benzyl)piperidine-2-carboxylic Acid] has an IC50 of 0.21 to 10 nM.
`Cc1c(COc2cc(OCc3cncc(C#N)c3)c(CN3CCCC[C@H]3C(=O)O)cc2Cl)cccc1-c1cccc(OCCCN2CCC(CO)CC2)c1C` [Example 2214, (2S)-1-(5-chloro-2-((5-cyanopyridin-3-yl)methoxy)-4-((3′-(3-(4-(hydroxymethyl)piperidin-1-yl)propoxy)-2,2′-dimethylbiphenyl-3-yl)methoxy)benzyl)piperidine-2-carboxylic Acid] showed an IC50 of 0.21 to 10 nM.
In the case of `CNC(=O)c1cccc(-c2cccc(COc3cc(OCc4cc(F)cc(F)c4)c(CN4C[C@H](O)C[C@H]4C(=O)O)cc3Cl)c2C)c1C` [Example 4025, (2S,4R)-1-(5-chloro-2-((3,5-difluorobenzyl)oxy)-4-((2,2′-dimethyl-3′-(methylcarbamoyl)-[1,1′-biphenyl]-3-yl)methoxy)benzyl)-4-hydroxypyrrolidine-2-carboxylic Acid], the IC50 is reported as 100 to 2000 nM.
`CCN(Cc1cc(Cl)c(OCc2cccc(-c3cccc(OCCCN4CC[C@@H](O)C4)c3C)c2C)cc1OCc1cncc(C#N)c1)[C@@](C)(CO)C(=O)O` [Example 4109, (S)-2-((5-chloro-2-((5-cyanopyridin-3-yl)methoxy)-4-((3′-(3-((R)-3-hydroxypyrrolidin-1-yl)propoxy)-2,2′-dimethyl-[1,1′-biphenyl]-3-yl)methoxy)benzyl)(ethyl)amino)-3-hydroxy-2-methylpropanoic Acid] showed an IC50 of 0.21 to 10 nM.
